US20090197859A1 (Pfizer Inc., priority 2008, published 2009)

Legend:
[1] = biological target: T1, cloned human 5-HT6 receptor (Homo sapiens, UniProt P50406); experiment: 5-HT6 Receptor Binding Assay ([3H]-LSD radioligand, SPA); settings: read-out: 5HT6 % inh @ 1 uM
T1 construct: host or cells: HeLa cells, G-418 selection, membrane preparation
Outline: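 Membranes from HeLa cells expressing cloned human 5-HT6 receptor, mixed with WGA-coated SPA beads in 20 mM HEPES, 10 mM MgCl2, 150 mM NaCl, 1 mM EDTA pH 7.4 with [3H]-LSD; 1 h at room temperature. Eleven concentrations in duplicate; one-site fit IC50 converted to Ki by Cheng-Prusoff.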

T1 sequence (P50406 whole entry): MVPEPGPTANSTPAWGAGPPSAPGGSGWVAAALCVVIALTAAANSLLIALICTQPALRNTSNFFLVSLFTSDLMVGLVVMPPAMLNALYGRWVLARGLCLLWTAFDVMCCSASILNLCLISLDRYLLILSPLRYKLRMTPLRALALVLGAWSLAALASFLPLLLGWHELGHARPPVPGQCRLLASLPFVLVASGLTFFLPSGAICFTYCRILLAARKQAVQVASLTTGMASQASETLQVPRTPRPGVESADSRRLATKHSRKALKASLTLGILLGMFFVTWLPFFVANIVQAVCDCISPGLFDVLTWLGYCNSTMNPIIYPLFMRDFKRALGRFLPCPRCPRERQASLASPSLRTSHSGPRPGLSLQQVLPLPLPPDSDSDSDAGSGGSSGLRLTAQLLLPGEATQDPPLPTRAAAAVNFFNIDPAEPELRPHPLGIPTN

melting point [°C] | inhibition at 1 µM [1] [%] | SMILES
90 to 92 | 97.7 | CN1CCCN(c2cccc(C(=O)N3CC[C@H](Oc4ccccc4Cl)C3)n2)CC1 [Example 69, [(S)-3-(2-Chloro-phenoxy)-pyrrolidin-1-yl]-[6-(4-methyl-[1,4]diazepan-1-yl)-pyridin-2-yl]-methanone]
77 to 78 | 74.9 | CN1CCN(c2cccc(C(=O)N(C)Cc3cccc(F)c3)n2)CC1 [Example 70, 6-(4-Methyl-piperazin-1-yl)-pyridine-2-carboxylic acid (3-fluoro-benzyl)-methyl-amide]
81 to 82 | 87.1 | CN1CCN(c2cccc(C(=O)N(C)Cc3cccc(Cl)c3)n2)CC1 [Example 71, 6-(4-Methyl-piperazin-1-yl)-pyridine-2-carboxylic acid (3-chloro-benzyl)-methyl-amide]
84 to 86 | 97.3 | CN1CCN(c2cccc(C(=O)N3CCC[C@H](Oc4cccc(F)c4)C3)n2)CC1 [Example 75, [(S)-3-(3-Fluoro-phenoxy)-piperidin-1-yl]-[6-(4-methyl-piperazin-1-yl)-pyridin-2-yl]-methanone]
195.3 to 196.4 | 90.2 | CN1CCN(c2cccc(S(=O)(=O)N3CCCCC3c3ccccc3F)n2)CC1 (stereo not shown) [Example 79, 1-{6-[2-(2-Fluoro-phenyl)-piperidine-1-sulfonyl]-pyridin-2-yl}-4-methyl-piperazine]
155 to 156.2 | 91.7 | CN1CCCN(c2cccc(C(=O)N3CCCC[C@@H]3c3cccc(F)c3)n2)CC1 [Example 80, [(R)-2-(3-Fluoro-phenyl)-piperidin-1-yl]-[6-(4-methyl-[1,4]diazepan-1-yl)-pyridin-2-yl]-methanone]
118 to 120 | 99.5 | Cc1cccc(O[C@H]2CCCN(C(=O)c3cccc(N4CCCN(C)CC4)n3)C2)c1 [Example 86, [6-(4-Methyl-[1,4]diazepan-1-yl)-pyridin-2-yl]-((S)-3-m-tolyloxy-piperidin-1-yl)-methanone]
110 to 112 | 98.9 | CN1CCCN(c2cccc(C(=O)N3CCC[C@H](Oc4cccc(Cl)c4)C3)n2)CC1 [Example 87, [(S)-3-(3-Chloro-phenoxy)-piperidin-1-yl]-[6-(4-methyl-[1,4]diazepan-1-yl)-pyridin-2-yl]-methanone]
199.5 to 200.6 | 83 | CN1CCN(c2cccc(C(=O)N(C)Cc3ccccc3C(F)(F)F)n2)CC1 [Example 92, 6-(4-Methyl-piperazin-1-yl)-pyridine-2-carboxylic acid methyl-(2-trifluoromethyl-benzyl)-amide]
119 to 121 | 85.8 | CN1CCC(c2cccc(C(=O)N3CCC(Oc4ccccc4Cl)CC3)n2)CC1 [Example 96, [4-(2-Chloro-phenoxy)-piperidin-1-yl]-(1′-methyl-1′,2′,3′,4′,5′,6′-hexahydro-[2,4′]bipyridinyl-6-yl)-methanone]
141.6 to 142.9 | 79.6 | CN1CC(c2cccc(C(=O)N3CCC(Oc4ccc(F)cc4)CC3)n2)C1 [Example 97, [4-(4-Fluoro-phenoxy)-piperidin-1-yl]-[6-(1-methyl-azetidin-3-yl)-pyridin-2-yl]-methanone]
85.1 to 86.2 | 101 | Cc1ccc(F)cc1C1CCN(C(=O)c2cccc(N3CCN(C)CC3)n2)CC1 [Example 103, [4-(5-Fluoro-2-methyl-phenyl)-piperidin-1-yl]-[6-(4-methyl-piperazin-1-yl)-pyridin-2-yl]-methanone]
122.6 to 123.2 | 104 | Cc1cccc(F)c1C1CCN(C(=O)c2cccc(C3CCN(C)C3)n2)CC1 (stereo not shown) [Example 111, [4-(2-Fluoro-6-methyl-phenyl)-piperidin-1-yl]-[6-(1-methyl-pyrrolidin-3-yl)-pyridin-2-yl]-methanone]
139.6 to 141.41 | 97.7 | Cc1ccc(F)cc1C1CCN(C(=O)c2cccc(C3CCN(C)C3)n2)CC1 (stereo not shown) [Example 112, [4-(5-Fluoro-2-methyl-phenyl)-piperidin-1-yl]-[6-(1-methyl-pyrrolidin-3-yl)-pyridin-2-yl]-methanone]

Continued, compound first:

SMILES | melting point [°C] | inhibition at 1 µM [1] [%]
COc1ccccc1CN(C)C(=O)c1cccc(N2CCN(C)CC2)n1 [Example 72, 6-(4-Methyl-piperazin-1-yl)-pyridine-2-carboxylic acid (2-methoxy-benzyl)-methyl-amide] | 75 to 76 | 89.9
Cc1cccc(CN(C)C(=O)c2cccc(N3CCN(C)CC3)n2)c1 [Example 73, 6-(4-Methyl-piperazin-1-yl)-pyridine-2-carboxylic acid methyl-(3-methyl-benzyl)-amide] | 101 to 102 | 91.9
Cc1cccc(O[C@H]2CCCN(C(=O)c3cccc(N4CCN(C)CC4)n3)C2)c1 [Example 76, [6-(4-Methyl-piperazin-1-yl)-pyridin-2-yl]-((S)-3-m-tolyloxy-piperidin-1-yl)-methanone] | 73 to 75 | 99
CN1CCN(c2cccc(C(=O)N3CCC[C@H](Oc4cccc(Cl)c4)C3)n2)CC1 [Example 77, [(S)-3-(3-Chloro-phenoxy)-piperidin-1-yl]-[6-(4-methyl-piperazin-1-yl)-pyridin-2-yl]-methanone] | 78 to 80 | 99.5
CN1CCCN(c2cccc(C(=O)N3CCC[C@H](Oc4cccc(F)c4)C3)n2)CC1 [Example 85, [(S)-3-(3-Fluoro-phenoxy)-piperidin-1-yl]-[6-(4-methyl-[1,4]diazepan-1-yl)-pyridin-2-yl]-methanone] | 113 to 115 | 99.1
CN1CCN(c2cccc(S(=O)(=O)N3CCC(c4ccccc4F)CC3)n2)CC1 [Example 88, 1-{6-[4-(2-Fluoro-phenyl)-piperidine-1-sulfonyl]-pyridin-2-yl}-4-methyl-piperazine] | 240.5 to 242 | 102
Cc1ccc(CN(C)C(=O)c2cccc(N3CCN(C)CC3)n2)cc1 [Example 90, 6-(4-Methyl-piperazin-1-yl)-pyridine-2-carboxylic acid methyl-(4-methyl-benzyl)-amide] | 98 to 99 | 89.4
Cc1cccc([C@@H](C)N(C)C(=O)c2cccc(N3CCN(C)CC3)n2)c1 [Example 93, 6-(4-Methyl-piperazin-1-yl)-pyridine-2-carboxylic acid methyl-((R)-1-m-tolyl-ethyl)-amide] | 126 to 128 | 99.4
CN1CCN(c2cccc(C(=O)N3CCC(c4ccc(F)cc4F)CC3)n2)CC1 [Example 102, [4-(2,4-Difluoro-phenyl)-piperidin-1-yl]-[6-(4-methyl-piperazin-1-yl)-pyridin-2-yl]-methanone] | 148.6 to 149.5 | 98.7
Cc1c(F)cccc1C1CCN(C(=O)c2cccc(N3CCN(C)CC3)n2)CC1 [Example 104, [4-(3-Fluoro-2-methyl-phenyl)-piperidin-1-yl]-[6-(4-methyl-piperazin-1-yl)-pyridin-2-yl]-methanone] | 128.6 to 129.2 | 101
Cc1cc(F)ccc1C1CCN(C(=O)c2cccc(N3CCN(C)CC3)n2)CC1 [Example 105, [4-(4-Fluoro-2-methyl-phenyl)-piperidin-1-yl]-[6-(4-methyl-piperazin-1-yl)-pyridin-2-yl]-methanone] | 156.4 to 157.7 | 97.6
Cc1cc(F)ccc1C1CCN(C(=O)c2cccc(C3CCN(C)C3)n2)CC1 (stereo not shown) [Example 106, [4-(4-Fluoro-2-methyl-phenyl)-piperidin-1-yl]-[6-(1-methyl-pyrrolidin-3-yl)-pyridin-2-yl]-methanone] | 116.2 to 117.4 | 93.6
